Test results from patent publication US20200289474A1, “METHODS OF TREATING PAIN WITH A THIAZOLINE ANTI-HYPERALGESIC” (priority 2019, published 2020).

How the values were obtained:
[1] = solubility in organic/aqueous solvents; type: physicochemical
[2] = system: incision-induced hyperalgesia; experiment: Brennan protocol, treatment paradigm (established hyperalgesia); type: in vivo, rat
Source text: Two incisional pain models were used to assess Compound 1 effects on hyperalgesia. The first model is referred to as the Brennan model in which, under anesthesia, a 1 cm longitudinal incision to the skin and underlying fascia of a rat hindpaw is made. The second is a variation but is a more invasive procedure in which the skin and muscle are spread apart using forceps which creates a longer-lasting hypersensitivity.
Using the Brennan protocol and a treatment paradigm in rat, Compound 1 (10 and 30 mg/kg PO), morphine (3 mg/kg SC) or vehicle were administered daily at 24 h post-incision, and again at 48 and 72 h post-incision. Mechanical thresholds were obtained at 1 h and 2 h post-dose in all cohorts on all days.

allodynia = experiment: methylglyoxal-induced diabetic neuropathy model; type: in vivo; conditions: rat
[3] = rat pharmacokinetics after single PO dose; type: in vivo; conditions: for Compound 1 Concentration in Rat Plasma / Compound 1 Concentration in Rat Plasma, Average / mean Cmax / t1/2: 100 mg/kg single PO; for Compound 1 Concentration in Rat Plasma: individual animals
Procedure: In both assays, a deuterated (Compound 1-d4) internal standard was used.
The objective of this non-GLP study was to determine the pharmacokinetics of Compound 1 after a single oral (gavage) dose in rats, and to determine if Compound 1 undergoes epimerization in the rat. Compound 1 was administered to CD® IGS [Crl:CD(SD)] (Sprague Dawley) rats (5/sex/group) as a single oral gavage dose of 100 mg/kg in a vehicle of 0.5% aqueous HPMC. Rats were dosed at a dose volume of 10 mL/kg body weight.

[4] = dog single oral dose MTD study; type: in vivo; conditions: for Average Compound 1 Concentration in Dog Plasma: N = 2
Procedure: Using a pyramiding dose schedule, dose levels of 250, 350 and 500 mg/kg were administered to 2 dogs/sex (after a washout period of at least three days, the same animals were dosed with the next dose level). The dose volume was 10 mL/kg body weight. The vehicle was 0.5% aqueous HPMC.

stability in plasma [5] = type: in vitro ADME; conditions: rat plasma
stability in plasma [6] = type: in vitro ADME; conditions: dog plasma
stability in plasma [7] = type: in vitro ADME; conditions: human plasma
OATP1B1 = target: T1, OATP1B1 (Homo sapiens, UniProt Q9Y6L6); experiment: transporter inhibition, HEK293 cells, probe accumulation; type: in vitro ADME
T1 construct: expressed in transfected cells; host or cells: HEK293 cells
T1 sequence (Q9Y6L6 1-691): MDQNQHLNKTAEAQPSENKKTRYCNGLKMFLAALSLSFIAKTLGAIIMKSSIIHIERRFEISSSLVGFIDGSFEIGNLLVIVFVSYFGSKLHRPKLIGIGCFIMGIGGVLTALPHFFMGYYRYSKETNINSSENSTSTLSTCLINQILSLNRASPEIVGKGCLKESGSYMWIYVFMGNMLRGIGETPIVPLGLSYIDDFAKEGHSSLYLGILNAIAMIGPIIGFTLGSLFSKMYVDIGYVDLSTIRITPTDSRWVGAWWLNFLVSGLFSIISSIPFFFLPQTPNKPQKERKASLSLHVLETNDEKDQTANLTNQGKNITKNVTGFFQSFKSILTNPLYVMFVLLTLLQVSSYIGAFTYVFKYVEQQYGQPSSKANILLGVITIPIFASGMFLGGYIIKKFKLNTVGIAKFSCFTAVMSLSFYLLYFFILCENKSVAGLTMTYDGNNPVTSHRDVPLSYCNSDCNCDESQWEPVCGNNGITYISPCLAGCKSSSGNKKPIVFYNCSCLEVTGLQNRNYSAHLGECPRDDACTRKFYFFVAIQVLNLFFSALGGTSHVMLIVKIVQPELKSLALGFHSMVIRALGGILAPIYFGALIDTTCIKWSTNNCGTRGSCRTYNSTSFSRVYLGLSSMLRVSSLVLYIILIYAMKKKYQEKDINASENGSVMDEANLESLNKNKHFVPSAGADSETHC

OATP1B3 = target: T2, OATP1B3 (Homo sapiens, UniProt Q9NPD5); experiment: as above; type: in vitro ADME
T2 construct: expressed in transfected cells; host or cells: HEK293 cells
T2 sequence (Q9NPD5 1-702): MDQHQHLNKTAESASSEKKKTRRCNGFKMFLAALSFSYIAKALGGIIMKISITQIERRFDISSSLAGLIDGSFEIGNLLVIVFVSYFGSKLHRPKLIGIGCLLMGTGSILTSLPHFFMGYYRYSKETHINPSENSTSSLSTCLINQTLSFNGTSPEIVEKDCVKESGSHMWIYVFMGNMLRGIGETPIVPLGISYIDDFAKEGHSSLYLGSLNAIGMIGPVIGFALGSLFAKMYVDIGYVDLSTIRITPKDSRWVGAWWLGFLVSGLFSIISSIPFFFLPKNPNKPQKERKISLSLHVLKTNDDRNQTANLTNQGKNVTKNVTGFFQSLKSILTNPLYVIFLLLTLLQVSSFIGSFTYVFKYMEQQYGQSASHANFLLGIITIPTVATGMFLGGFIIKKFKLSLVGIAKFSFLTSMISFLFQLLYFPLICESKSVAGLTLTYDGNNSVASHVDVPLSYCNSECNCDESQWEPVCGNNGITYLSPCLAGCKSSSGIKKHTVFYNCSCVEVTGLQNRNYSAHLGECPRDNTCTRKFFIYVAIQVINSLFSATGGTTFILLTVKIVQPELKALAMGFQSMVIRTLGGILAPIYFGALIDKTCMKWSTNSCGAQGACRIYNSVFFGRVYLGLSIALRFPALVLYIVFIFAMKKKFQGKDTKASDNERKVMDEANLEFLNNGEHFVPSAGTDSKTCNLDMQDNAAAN

SMILES: CC1(C)SC(Nc2ccccc2O)=N[C@@H]1C(=O)O.Cl [Compound 1, (R)-2-(2-hydroxyphenylamino)-5,5-dimethyl-4,5-dihydrothiazole-4-carboxylic acid mono-hydrochloride]
- solubility ([1]; in 2-propanol, ethanol, 10% water: isopropyl acetate, 10% water/tetrahydrofuran, and water): sparingly soluble
- solubility ([1]; in methanol and tert-butyl alcohol: water (1:1)): freely soluble
- solubility ([1]; in n-heptane, toluene, acetone, tetrahydrofuran, ethyl acetate, isopropyl acetate, t-butyl methyl ether, t-butyl alcohol): less than sparingly soluble
- reversal of hyperalgesia ([2]; 10 and 30 mg/kg PO, Day 2, 1 h and 2 h post-dosing): full reversal of hyperalgesia
- hyperalgesia ([2]; 10 and 30 mg/kg PO, Day 3 prior to dosing): did not show hyperalgesia
- hyperalgesia ([2]; low- and high-dose, Day 3 after dosing): prevented/reversed hyperalgesia completely
- reversal of hyperalgesia ([2]; low-dose (10 mg/kg PO), Day 1, 2 h post-dose): partial reversal
- effect on allodynia, methylglyoxal-induced diabetic neuropathy (allodynia): alleviates allodynia
- Compound 1 Concentration in Rat Plasma ([3]; Female, 0.5 h post-dose, mono-hydrochloride, 100 mg/kg): 34.3 µg/mL
- Compound 1 Concentration in Rat Plasma, Average ([3]; Female, 1 h post-dose): 60.1 µg/mL
- Compound 1 Concentration in Rat Plasma ([3]; Female, 1 h post-dose, mono-hydrochloride, 100 mg/kg): 53.9 µg/mL
- Compound 1 Concentration in Rat Plasma, Average ([3]; Female, 4 h post-dose): 22.6 µg/mL
- Compound 1 Concentration in Rat Plasma ([3]; Male, 0.5 h post-dose, mono-hydrochloride, 100 mg/kg): 13.8 µg/mL
- Compound 1 Concentration in Rat Plasma, Average ([3]; Male, 1 h post-dose): 14.9 µg/mL
- Compound 1 Concentration in Rat Plasma, Average ([3]; Male, 2 h post-dose): 14.3 µg/mL
- Compound 1 Concentration in Rat Plasma ([3]; Male, 2 h post-dose, mono-hydrochloride, 100 mg/kg): 16.3 µg/mL
- Compound 1 Concentration in Rat Plasma ([3]; Male, 8 h post-dose, mono-hydrochloride, 100 mg/kg): 1.61 µg/mL
- Compound 1 Concentration in Rat Plasma ([3]; Male, 24 h post-dose): BQL
- mean Cmax ([3]; females): 60000 ng/mL
- t1/2 ([3]; females): 4 h
- mean Cmax ([3]; males): 15000 ng/mL
- t1/2 ([3]; males): 7 h
- epimerization in vivo (chiral column) ([3]; rat plasma): did not provide any evidence of epimerization
- Average Compound 1 Concentration in Dog Plasma ([4]; 250 mg/kg PO (Dose 1; Day 1), 0.5 h, F): 28 µg/mL
- Average Compound 1 Concentration in Dog Plasma ([4]; 250 mg/kg PO (Dose 1; Day 1), 0.5 h, M): 71 µg/mL
- Average Compound 1 Concentration in Dog Plasma ([4]; 250 mg/kg PO (Dose 1; Day 1), 1 h, F): 54 µg/mL
- Average Compound 1 Concentration in Dog Plasma ([4]; 250 mg/kg PO (Dose 1; Day 1), 1 h, M): 110 µg/mL
- Average Compound 1 Concentration in Dog Plasma ([4]; 250 mg/kg PO (Dose 1; Day 1), 2 h, F): 46 µg/mL
- Average Compound 1 Concentration in Dog Plasma ([4]; 250 mg/kg PO (Dose 1; Day 1), 2 h, M): 91 µg/mL
- Average Compound 1 Concentration in Dog Plasma ([4]; 350 mg/kg PO (Dose 3; Day 9), 0.5 h, F): 67 µg/mL
- Average Compound 1 Concentration in Dog Plasma ([4]; 350 mg/kg PO (Dose 3; Day 9), 0.5 h, M): 134 µg/mL
- Average Compound 1 Concentration in Dog Plasma ([4]; 350 mg/kg PO (Dose 3; Day 9), 1 h, F): 154 µg/mL
- Average Compound 1 Concentration in Dog Plasma ([4]; 350 mg/kg PO (Dose 3; Day 9), 1 h, M): 220 µg/mL
- Average Compound 1 Concentration in Dog Plasma ([4]; 350 mg/kg PO (Dose 3; Day 9), 2 h, F): 119 µg/mL
- Average Compound 1 Concentration in Dog Plasma ([4]; 350 mg/kg PO (Dose 3; Day 9), 2 h, M): 153 µg/mL
- Average Compound 1 Concentration in Dog Plasma ([4]; 500 mg/kg PO (Dose 2; Day 4), 0.5 h, F): 87 µg/mL
- Average Compound 1 Concentration in Dog Plasma ([4]; 500 mg/kg PO (Dose 2; Day 4), 0.5 h, M): 111 µg/mL
- Average Compound 1 Concentration in Dog Plasma ([4]; 500 mg/kg PO (Dose 2; Day 4), 1 h, F): 136 µg/mL
- Average Compound 1 Concentration in Dog Plasma ([4]; 500 mg/kg PO (Dose 2; Day 4), 1 h, M): 191 µg/mL
- Average Compound 1 Concentration in Dog Plasma ([4]; 500 mg/kg PO (Dose 2; Day 4), 2 h, F): 124 µg/mL
- Average Compound 1 Concentration in Dog Plasma ([4]; 500 mg/kg PO (Dose 2; Day 4), 2 h, M): 193 µg/mL
- tolerability ([4]; dogs, single oral (gavage) dose of 500 mg/kg, emesis in three of the four dosed animals): not tolerated
- stability in plasma (stability in plasma [5]): stable
- stability in plasma (stability in plasma [6]): stable
- stability in plasma (stability in plasma [7]): stable
- inhibition (OATP1B1): does not inhibit
- inhibition (OATP1B3): does not inhibit
